Test results reported in patent US20250313807A1, “SYSTEMS AND METHODS FOR CHARACTERIZATION OF POLYCYSTIC KIDNEY DISEASE” (University of Washington, priority 2022, published 2025).

Assays:
PKD organoids [1] = tested on: PKD organoids
Description: The low height of the channels in the flow devices enabled continuous time lapse imaging of fluorescent molecules without high background fluorescence.
Organoid perfusion in microfluidic chip. Ibidi μ-Slide VI0.4 were coated with 3.0% Reduced Growth Factor Geltrex (Life Technologies) and left at 37° C. overnight to solidify. Kidney organoids (21-40 d) were picked from adhered culture plates, pipetted into the slide channels (2-3 per channel) with RB, and left for 24 hrs at 37° C. to attach. Organoids were distributed randomly within the channel. For the fluidic condition, 60 mL syringes filled with RB were attached to channels using clear tubing (Cole-Parmer, 0.02″ ID, 0.083″ OD). A clamp was used to close off the tubing, and the media in the syringe was changed to 25 mL RB+36.5 μM 2-NBD-Glucose fluorescent glucose (Abcam ab146200). […]
Image/video collection. […] Experiments in microfluidic devices were recorded for 6 hours. […] Cyst growth rate in microfluidic devices was therefore calculated on an individual basis, when each cyst reached its maximal volume, which varied for each sample from 1 hour to 5 hours after the start of the experiment. For longer-term experiments conducted in static 96-well cultures, organoids were imaged at regular intervals (typically 24 hours) and analyzed at the endpoint indicated in the figure graphs. […]

[2] = tested on: PKD cysts of Pkd1^RC/RC mice; details: systemic perfusion with PBS+1 mM NBD-Glucose, kidney tissue sections
Description: To determine whether PKD cysts absorbed glucose in vivo, a methodology was devised to inject mice with NBD glucose and immediately retrieve their kidneys (FIG. 6D).
For perfusion experiments, NBD Glucose was freshly dissolved in PBS to a concentration of 1 mM. Freshly sacrificed Pkd1^RC/RC mice (>8 months old) were incised through the chest and nicked at the vena cava with a 27-gauge needle. Keeping pressure on the vena cava, mice were perfused systemically through the heart with a syringe containing 10 mL of PBS, followed by a second syringe containing 5 mL of either PBS alone (control) or PBS+1 mM NBD-Glucose. Kidneys were harvested immediately and embedded fresh without fixation or sucrose equilibration in OCT. Cryostat-cut mouse kidney sections (20 μm) were mounted in OCT and imaged on a confocal microscope with 10× objective. […] Mice were maintained on a standard diet under standard pathogen-free housing conditions, with food and water freely available.

PKD organoid cysts = experiment: cyst expansion in PKD organoids under static conditions (96-well plate); format: cell-based, human
Description: To test functionally whether cyst growth is linked to glucose transport in human organoids, cyst expansion was quantified in increasing concentrations of D-glucose under static conditions (96-well plate).
To test this hypothesis, the effects of pharmacological transport inhibitors on cysts were examined in static conditions.
Kidney organoid differentiation. […] 5,000-20,000 hPSCs per well were placed in each 24-well plate pre-coated with 300 μL of DMEM-F12 containing 0.2 mg/mL Matrigel and sandwiched the following day with 0.2 mg/mL Matrigel in mTeSR1 ([sequence] Technologies, Vancouver) to produce scattered, isolated spheroid colonies. 48 hrs after sandwiching, hPSC spheroids were treated with 12 μM CHIR99021 (Tocris Bioscience) for 36 h, then changed to RB (Advanced RPMI+1× Glutamax+1×B27 Supplement, all from Thermo Fisher Scientific) after 48 hours, and replaced with fresh RB every 3 days thereafter.
Image/video collection. Image collection was performed on a Nikon Ti Live-Cell Inverted Widefield microscope inside of an incubated live imaging chamber supplemented with 5% carbon dioxide. […] For longer-term experiments conducted in static 96-well cultures, organoids were imaged at regular intervals (typically 24 hours) and analyzed at the endpoint indicated in the figure graphs. Phase contrast and GFP (200 ms exposure) images were taken every 5 minutes for a maximum of 12 hours. […]

PKD organoids [3] = experiment: live/dead staining (calcein AM/propidium iodide) of cystic organoids; format: cell-based, human; details: 24 and 48 hours of treatment

Compound: O=C[C@H](Nc1ccc([N+](=O)[O-])c2nonc12)[C@@H](O)[C@H](O)[C@H](O)CO [NBD glucose, 2-(N-(7-Nitrobenz-2-oxa-1,3-diazol-4-yl)Amino)-2-Deoxyglucose]
- absorption into organoid proximal and distal tubules (immunofluorescence) (PKD organoids [1]; organoid tubules): absorbed into and accumulated inside organoid proximal and distal tubules
- washout from loaded PKD organoids (PKD organoids [1]; switched into media containing only unlabeled glucose, continuous flow): disappeared rapidly
- uptake by cyst-lining epithelia and surrounding interstitium [2]: readily took up NBD glucose

Compound: CCCN(CCC)S(=O)(=O)c1ccc(C(=O)O)cc1 [probenecid]
- effect on cyst growth (PKD organoid cysts; 15 mM D-Glucose, non-toxic doses): no effect on cyst growth

Compound: O=C(CCc1ccc(O)cc1)c1c(O)cc(O)cc1O [Phloretin, phloretin]
- decrease of cyst size (PKD organoid cysts; 800 μM phloretin, 15 mM glucose): 77%
- toxicity by live-dead staining (PKD organoids [3]): no significant toxicity
